According to ChEMBL document CHEMBL1201862, “PubChem BioAssay data set” (2004):
The source made the active and inactive calls. Rule as the data show it, for most assays here: actives have a measured EC50 and inactives only a lower limit.

Key:
Cytochrome P450 3A4 = Cytochrome P450 3A4 (Homo sapiens, UniProt P08684);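 also: CYP3A4 tested as one member of a cytochrome P450 panel screen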
[1] = tested on: Streptococcus sp. 'group A'; test: Streptococcus pyogenes SK(-)GAS viability under kanamycin – luminescence, BacTiterGlo, confirmation, counter-screen for streptokinase expression inhibitor project, dose response (AID 1900); type: functional, organism-based
Streptokinase A = target: T1, Streptokinase A (Streptococcus pyogenes serotype M1, UniProt P10520); test: viability-normalized secreted streptokinase activity reduction – plasminogen activation absorbance, OD405, dose response (AID 1914); type: functional, Streptococcus pyogenes M1 GAS;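 also: secreted streptokinase activity via plasminogen activation per viability signal from cell pellet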
T1 sequence (P10520 whole entry): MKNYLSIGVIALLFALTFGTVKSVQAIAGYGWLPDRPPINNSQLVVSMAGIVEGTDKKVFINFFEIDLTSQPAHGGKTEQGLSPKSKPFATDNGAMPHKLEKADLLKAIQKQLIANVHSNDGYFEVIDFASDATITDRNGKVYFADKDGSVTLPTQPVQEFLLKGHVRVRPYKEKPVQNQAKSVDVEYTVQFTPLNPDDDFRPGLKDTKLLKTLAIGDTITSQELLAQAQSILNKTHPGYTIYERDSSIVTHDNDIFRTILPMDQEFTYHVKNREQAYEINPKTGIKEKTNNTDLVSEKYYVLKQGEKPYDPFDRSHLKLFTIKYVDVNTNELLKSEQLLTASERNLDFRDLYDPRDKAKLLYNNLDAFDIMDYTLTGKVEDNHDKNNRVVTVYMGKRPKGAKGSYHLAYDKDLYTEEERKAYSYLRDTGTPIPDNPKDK

Streptococcus = test: GAS UMAA2166 growth inhibition – luminescence, BacTiterGlo, counter-screen for streptokinase expression inhibitor project, dose response (AID 1915); type: functional, organism-based;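 also: potency for reduction of bacterial viability or growth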
[2] = target: T2, Short transient receptor potential channel 4 (Mus musculus, UniProt Q9QUQ5); test: block of DAMGO-driven TRPC4 calcium entry – cell-based, HEK293 TRPC4/mu-opioid, Fluo-4 calcium, dose response (AID 434942); type: functional;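 also: potency of inhibitors blocking the TRPC4 calcium response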
T2 sequence (Q9QUQ5 whole entry): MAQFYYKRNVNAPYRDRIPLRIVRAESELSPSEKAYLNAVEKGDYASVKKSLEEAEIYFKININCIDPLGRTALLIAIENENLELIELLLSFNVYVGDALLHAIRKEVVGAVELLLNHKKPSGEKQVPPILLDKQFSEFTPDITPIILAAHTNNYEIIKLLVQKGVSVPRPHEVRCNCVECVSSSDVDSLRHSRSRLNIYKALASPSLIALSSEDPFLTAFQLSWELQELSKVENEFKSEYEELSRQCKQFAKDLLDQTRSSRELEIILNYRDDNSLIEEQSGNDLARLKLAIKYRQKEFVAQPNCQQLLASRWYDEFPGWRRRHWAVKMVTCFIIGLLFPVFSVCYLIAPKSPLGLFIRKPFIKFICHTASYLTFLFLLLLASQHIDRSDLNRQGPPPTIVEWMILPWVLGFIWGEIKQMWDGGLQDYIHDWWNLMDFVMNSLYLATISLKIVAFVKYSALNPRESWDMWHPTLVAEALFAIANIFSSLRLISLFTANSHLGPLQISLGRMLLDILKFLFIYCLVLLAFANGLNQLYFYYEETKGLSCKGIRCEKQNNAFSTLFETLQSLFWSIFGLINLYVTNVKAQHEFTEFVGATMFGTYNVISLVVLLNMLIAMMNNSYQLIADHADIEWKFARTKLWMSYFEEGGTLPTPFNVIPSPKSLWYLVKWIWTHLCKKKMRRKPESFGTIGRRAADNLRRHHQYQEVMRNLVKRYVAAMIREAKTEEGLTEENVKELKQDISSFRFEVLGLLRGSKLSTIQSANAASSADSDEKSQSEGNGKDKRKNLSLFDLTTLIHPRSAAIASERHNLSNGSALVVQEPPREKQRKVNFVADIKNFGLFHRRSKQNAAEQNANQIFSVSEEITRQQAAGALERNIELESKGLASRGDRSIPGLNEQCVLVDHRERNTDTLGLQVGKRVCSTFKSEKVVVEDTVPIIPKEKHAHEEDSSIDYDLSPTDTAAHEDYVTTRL

[3] = Trypanosoma cruzi growth suppression in host cells – NIH3T3 host cells, beta-gal luminescence, confirmation (AID 2044); type: functional, cell-based;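 also: intracellular parasites grown in NIH/3T3 mouse fibroblasts as host cells; luminescent beta-galactosidase reporter signal from transgenic T. cruzi replicating inside host cells; inhibitors lower the luminescence signal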
[4] = NIH3T3 cell viability loss – ATP luminescence, mouse fibroblasts, counter-screen, dose response (AID 2010); type: functional, cell-based;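 also: cells exposed to compound for about 90 hours before reading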
[5] = Luminescence Cell-Based Dose Retest to Confirm Inhibitors of Cancer Stem Cells. [Related pubchem assays (depositor defined):AID2717, AID2721]; type: functional; settings: Homo sapiens
[6] = Luminescence Cell-Based Dose Response HTS to Identify Activators of Luciferase Translation or Activity in H4 […] Cells. [Related pubchem assays: 1829 (Project Summary), 1814 (Primary HTS)]; type: functional
H4 = test: Luminescence Cell-Based Dose Response HTS to Identify Activators of 5'UTR Stem-Loop Driven Prion Protein mRNA Translation in H4 Neuroglioblastoma Cells. [Related pubchem assays: 1829 (Project Summary), 1814 (Primary HTS)]; type: functional; settings: Homo sapiens
[7] = viability of uninfected HEp-2 cells – cell-based, HTS, cytotoxicity control for RSV inhibitor project, dose response (AID 2410); type: functional; settings: human respiratory syncytial virus
[8] = NIH-3T3 fibroblast cytotoxicity, dose response, cytotoxicity control, cell-based, fluorescence, Alamar Blue, secondary assay (AID 2327); type: functional;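 also: NIH-3T3 mouse fibroblasts cultured with fluconazole at 8 µg/mL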
[9] = fluconazole-exposed Candida albicans growth modulators – fluorescence, retest, confirmation (AID 2467); type: functional, cell-based
[10] = target: T3, Corticotropin-releasing factor receptor 2/Corticotropin-releasing factor-binding protein (Homo sapiens, UniProt P24387+Q13324); test: Dose Response confirmation of uHTS hits for small molecule antagonists of the CRF-binding protein and CRF-R2 receptor complex.; type: functional; settings: read-out: IC50_Mean
T3 sequence (Q13324 whole entry): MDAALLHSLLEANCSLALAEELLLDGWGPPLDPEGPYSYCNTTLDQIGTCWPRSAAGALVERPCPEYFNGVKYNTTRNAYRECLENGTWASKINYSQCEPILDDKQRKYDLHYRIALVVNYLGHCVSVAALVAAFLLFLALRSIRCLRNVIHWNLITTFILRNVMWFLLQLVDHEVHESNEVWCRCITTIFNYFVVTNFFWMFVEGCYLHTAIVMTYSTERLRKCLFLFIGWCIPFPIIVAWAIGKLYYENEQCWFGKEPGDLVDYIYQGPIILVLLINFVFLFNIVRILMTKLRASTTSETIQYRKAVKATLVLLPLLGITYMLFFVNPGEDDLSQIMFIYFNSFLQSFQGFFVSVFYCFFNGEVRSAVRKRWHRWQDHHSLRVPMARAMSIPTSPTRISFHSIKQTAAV
T3 sequence (P24387 whole entry): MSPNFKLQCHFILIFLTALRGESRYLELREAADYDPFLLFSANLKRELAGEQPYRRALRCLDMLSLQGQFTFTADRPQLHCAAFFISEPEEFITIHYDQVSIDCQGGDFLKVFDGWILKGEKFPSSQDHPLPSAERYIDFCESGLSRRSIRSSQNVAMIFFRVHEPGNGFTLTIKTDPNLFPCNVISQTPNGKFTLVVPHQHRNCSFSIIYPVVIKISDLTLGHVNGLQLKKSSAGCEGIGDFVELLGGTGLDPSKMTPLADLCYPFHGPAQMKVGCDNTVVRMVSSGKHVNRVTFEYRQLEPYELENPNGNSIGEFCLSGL

[11] = target: T3, Corticotropin-releasing factor receptor 2/Corticotropin-releasing factor-binding protein; test: activators of CRF receptor 2 with binding protein – uHTS hits, confirmation (AID 602473); type: functional; settings: read-out: EC50_Mean
Cytochrome P450 2C9 = Cytochrome P450 2C9 (Homo sapiens, UniProt P11712)
Sequence of Cytochrome P450 2C9 (P11712 whole entry): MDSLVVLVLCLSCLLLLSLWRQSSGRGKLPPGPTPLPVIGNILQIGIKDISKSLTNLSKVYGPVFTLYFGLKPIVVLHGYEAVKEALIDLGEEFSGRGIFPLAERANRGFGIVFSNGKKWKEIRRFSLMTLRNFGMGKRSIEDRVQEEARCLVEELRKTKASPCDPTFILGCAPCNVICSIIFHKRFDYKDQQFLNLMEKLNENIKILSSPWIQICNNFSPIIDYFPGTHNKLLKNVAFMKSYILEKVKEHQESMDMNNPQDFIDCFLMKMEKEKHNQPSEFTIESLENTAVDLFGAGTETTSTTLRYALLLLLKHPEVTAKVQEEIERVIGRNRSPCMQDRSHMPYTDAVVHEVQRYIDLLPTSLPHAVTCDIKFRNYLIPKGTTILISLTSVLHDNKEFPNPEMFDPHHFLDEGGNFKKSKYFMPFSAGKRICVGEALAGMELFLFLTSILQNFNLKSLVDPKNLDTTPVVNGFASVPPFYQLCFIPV

Sequence of Cytochrome P450 3A4 (P08684 whole entry): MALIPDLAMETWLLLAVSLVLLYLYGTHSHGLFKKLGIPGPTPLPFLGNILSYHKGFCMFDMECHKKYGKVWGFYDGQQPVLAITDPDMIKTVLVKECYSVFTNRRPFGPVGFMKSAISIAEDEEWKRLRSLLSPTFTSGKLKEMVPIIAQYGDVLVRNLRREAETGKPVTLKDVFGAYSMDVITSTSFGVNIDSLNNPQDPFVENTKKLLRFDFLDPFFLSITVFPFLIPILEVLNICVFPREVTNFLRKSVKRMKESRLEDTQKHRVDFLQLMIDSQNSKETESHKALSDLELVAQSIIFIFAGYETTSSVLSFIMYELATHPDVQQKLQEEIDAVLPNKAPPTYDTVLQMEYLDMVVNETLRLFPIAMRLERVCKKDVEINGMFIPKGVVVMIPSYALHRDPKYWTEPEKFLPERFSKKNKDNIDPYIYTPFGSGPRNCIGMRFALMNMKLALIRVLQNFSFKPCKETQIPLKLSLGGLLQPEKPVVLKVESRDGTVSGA

Cc1ccc(SCCNC(=O)c2ccccc2)cc1
AC50 (Cytochrome P450 3A4): 12.6 µM (inconclusive)

Cc1nn(-c2ccccc2)c(Cl)c1C1C(C#N)=C(N)OC2=C1C(=O)CCC2 (configuration not stated)
EC50 [1]: 1.77 µM (active) | EC50 (Streptokinase A): > 150 µM (not active) | EC50 (Streptococcus): 15.9 µM (active)

C/C(CC(=O)NCc1ccco1)=N\NC(=O)Cc1ccccc1
AC50 (Cytochrome P450 3A4): 17.8 µM (inconclusive)

NC(=O)c1nsc(C(=O)N(Cc2ccco2)C(C(=O)NCc2ccc(F)cc2)c2ccc(O)cc2)c1N (configuration not stated)
EC50 [2]: 0.105 µM (active)

CCCc1nc2ccccc2c(C(=O)OCC(=O)N2CCc3ccccc32)c1CC
EC50 [3]: 0.496 µM (active) | EC50 [4]: > 60 µM (not active) | AC50 [5]: 3.04 µM (active)

COc1cc2c(cc1NC(=O)c1ccccc1F)CCCC2
EC50 [6]: 89.6 µM (active) | EC50 (H4): > 120 µM (not active)

CCOC(=O)c1[nH]c2cc(OC)c(OC)cc2c1NC(=O)c1nonc1C
AC50 (Cytochrome P450 3A4): 2.82 µM (inconclusive)

COc1cc(OC)cc(-c2cc3nc4c(c(N5CCN(c6ncccn6)CC5)n3n2)CCCC4)c1
EC50 [1]: 13.2 µM (active) | EC50 (Streptokinase A): > 150 µM (not active) | EC50 (Streptococcus): 106 µM (active)

Oc1nc(NN=C(S)NC2CCCCC2)nc2c1C1(CCCC1)Cc1ccccc1-2
CC50 [7]: 25.7 µM (active) | EC50 [1]: 5.2 µM (active) | EC50 (Streptokinase A): 16.1 µM (active) | EC50 (Streptococcus): 17.2 µM (active)

COC(=O)[C@@H]1CCCN1Cc1nc(Cc2ccccc2F)no1
EC50 [8]: > 160 µM (inactive) | EC50 [9]: > 38 µM (not active)

Cc1cccc(Nc2nnc(-c3ccc(N4CCOCC4)c([N+](=O)[O-])c3)c3ccccc23)c1
EC50 [1]: 3.77 µM (active) | EC50 (Streptokinase A): > 150 µM (not active) | EC50 (Streptococcus): 125 µM (active)

Cn1cc(CN2CCCCC2CO)c(-c2ccc(Oc3ccccc3)cc2)n1 (configuration not stated)
EC50 [2]: 7.5 µM (active)

COc1ccccc1C(=O)Nc1ccc2c(c1)CCCN2C(=O)c1cccs1
CC50 [7]: 21.5 µM (active) | EC50 [2]: 3.35 µM (active)

Cc1n[nH]c(C)c1CCCCOc1ccccc1F
EC50 [2]: 3.76 µM (active)

S=C(NCCN1CCOCC1)NC1CCCC1
EC50 [8]: > 150 µM (inactive) | EC50 [9]: > 38 µM (not active)

COCCn1c(SCC(=O)Nc2ccc(F)cc2)nc2c3ccccc3nc-2c1O
EC50 [1]: > 150 µM (not active) | EC50 (Streptokinase A): > 150 µM (not active) | EC50 (Streptococcus): > 150 µM (not active)

NC(=O)N/N=C1\c2ccccc2-c2c(C(N)=O)cccc21
EC50 [2]: 1.5 µM (active)

CN(C)c1ccc([N+](=O)[O-])cc1C(=O)NCC(c1ccco1)N(C)C (configuration not stated)
EC50 [2]: 0.299 µM (active)

COc1ccc(NC(=O)c2cc(-c3ccccc3OC)on2)cc1
AC50 [5]: 0.248 µM (active) | IC50 [10]: > 47.1 µM (inactive) | EC50 [11]: > 53 µM (inactive)

Fc1ccccc1COc1ccc(-c2nnn(Cc3ccccc3F)n2)cc1
AC50 [5]: 5.63 µM (active)

CC(=O)Nc1cccc(C(=O)NCC2(N3CCCCC3)CCCCC2)c1
EC50 [2]: 2.66 µM (active)

COc1cccc(Cn2c(=O)c(-c3cn(C)c4ccccc34)nc3cncnc32)c1
AC50 (Cytochrome P450 3A4): 10 µM (inconclusive) | AC50 (Cytochrome P450 2C9): 0.794 µM (inconclusive)

Oc1c2cnnc-2nc(SCc2c(F)cccc2F)n1-c1ccc(Cl)cc1
EC50 [1]: 14.1 µM (active) | EC50 (Streptokinase A): > 150 µM (not active) | EC50 (Streptococcus): > 150 µM (not active)

CCOc1cc(/C=C2\C(=O)N(Cc3ccc(C)cc3)C(C)=C2C(=O)OC)ccc1O
AC50 (Cytochrome P450 3A4): 1 µM (inconclusive)

CN1CCCCc2c1nc1ccccc1c2N.O=C(O)c1cncc(Br)c1
EC50 [2]: 0.668 µM (active)

Cc1ccc(Cn2ccc(NC(=O)c3cc(C)on3)n2)cc1
EC50 [8]: > 150 µM (inactive) | EC50 [9]: > 38 µM (not active)

Cc1c(O)cc2c(c1O)C(=O)CC(c1ccccc1)O2 (configuration not stated) [STROBOPININ]
AC50 [5]: 4.97 µM (active) | EC50 [11]: 2.69 µM (active)

CCOC(=O)c1sc(Nc2nc3ccc(OC)cc3s2)cc1C
EC50 [1]: 9.29 µM (active) | EC50 (Streptokinase A): > 150 µM (not active) | EC50 (Streptococcus): 8.88 µM (active)

O=C(CC1Nc2ccccc2NC1=O)Nc1ccccc1 (configuration not stated)
AC50 [5]: 0.568 µM (active)

CCC/C(=C1/c2ccccc2C(=O)N1c1ccccc1)c1ccc2[nH]ccc2c1
AC50 [5]: 1.04 µM (active)

O=C(CSc1ccc2ccccc2n1)N/N=C/c1ccccc1O
EC50 [1]: 1.1 µM (active) | EC50 (Streptokinase A): > 150 µM (not active) | EC50 (Streptococcus): 2.9 µM (active)

CCNc1ncc2nc(-c3cccs3)c(=O)n(C)c2n1
AC50 (Cytochrome P450 3A4): 12.6 µM (inconclusive) | AC50 (Cytochrome P450 2C9): 10 µM (inconclusive)

COC(=O)c1ccc(NS(=O)(=O)c2cc(-c3cc(C)no3)ccc2OC)cc1
EC50 [8]: 127 µM (active) | EC50 [9]: > 38 µM (not active)

CCSc1cc(N2CCCC2)nc(-c2ccccc2)n1
EC50 [1]: > 150 µM (not active) | EC50 (Streptokinase A): 66.1 µM (active) | EC50 (Streptococcus): > 150 µM (not active)

CCOC(=O)C1CCN(CC(O)COc2ccc(C(C)(C)C)cc2)CC1 (configuration not stated)
EC50 [2]: 1.88 µM (active)

CCc1c(C)c(C#N)c2nc3ccccc3n2c1S
EC50 [1]: 14.6 µM (active) | EC50 (Streptokinase A): > 150 µM (not active) | EC50 (Streptococcus): 21.5 µM (active)

C[C@@H]1OC2C3=C(C(=O)[C@H]4O[C@@H]4[C@H]3O)[C@@H]1[C@H]1[C@H](C)OC=C3[C@H](O)[C@H]4O[C@H]4/C(=N\OCc4ccccc4)[C@@]321
AC50 (Cytochrome P450 3A4): 3.98 µM (inconclusive)

Cc1ccc(Oc2ccccc2/C=N/O)cc1
EC50 [2]: 9.44 µM (active)
